From patent US20140296146A1, “Thermostable Inhibitors of Activation of the Blood Clotting System Through Contact with Foreign Surfaces” (Synapse B.V., priority 2011, published 2014) come the findings set out here.

Where a SMILES comes first, the peptide text is derived from it. Bridges are numbered along the chain shown (N, C = ends).

A word on the Ki: it is a measure of affinity in units of concentration, obtained from inhibition or displacement.

Data set [1] has as its target T1, h-FXIIa (Homo sapiens, UniProt P00748).
T1 construct: purchased Enzyme Research Laboratories FXIIa 1212A
T1 sequence (P00748 373-615 limits assumed): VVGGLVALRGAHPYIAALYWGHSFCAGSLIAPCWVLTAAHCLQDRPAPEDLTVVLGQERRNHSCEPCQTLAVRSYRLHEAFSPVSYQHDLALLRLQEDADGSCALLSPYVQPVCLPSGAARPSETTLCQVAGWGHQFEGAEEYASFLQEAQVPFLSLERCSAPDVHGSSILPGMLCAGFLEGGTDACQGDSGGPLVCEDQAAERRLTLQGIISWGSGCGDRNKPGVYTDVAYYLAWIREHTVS
T1 sequence (P00748 20-372 partner limits assumed): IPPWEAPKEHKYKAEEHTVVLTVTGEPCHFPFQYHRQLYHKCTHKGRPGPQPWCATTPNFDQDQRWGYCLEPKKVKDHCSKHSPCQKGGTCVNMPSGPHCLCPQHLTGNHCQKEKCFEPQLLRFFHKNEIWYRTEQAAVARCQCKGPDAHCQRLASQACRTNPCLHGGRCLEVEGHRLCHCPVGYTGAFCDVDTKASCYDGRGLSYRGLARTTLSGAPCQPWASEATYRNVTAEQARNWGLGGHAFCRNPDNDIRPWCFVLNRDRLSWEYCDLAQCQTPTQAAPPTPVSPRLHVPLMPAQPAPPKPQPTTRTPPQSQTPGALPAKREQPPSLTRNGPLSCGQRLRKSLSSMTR
The data set is described as follows: Effect of inhibitors on hydrolysis of S2302 by h-FXIIa. It is filed as biochemical. The protocol: Materials • S2302 From Chromogenic, lot # N0398718 SEQ0860, exp. date 2012-07. Water added on 7 Oct. […] On 3 Aug. […] Product code FXIIa 1212A, lot #FXIIa 2520PL. Bottle with 0.5 mg was reconstituted with 370 μl pure water. […] Buffer 4 mM NaAc, 150 mM NaCl (pH 5.3). Preparation was divided into 20 μl amounts and frozen at −80° C. • Hepes735 140 mM NaCl, 20 mM Hepes, 0.02% NaN3 (pH 7.35). • BSA5 Hepes735+5 mg/ml BSA. • CTI Prepared on 17 Dec. 2004, 0.141 mg/ml, i.e. 0.141/12028=11.7*10^−6 M (11.7 μM). One portion was thawed and divided into 3 parts. Part 1 was frozen at −80° C.; part 2 was kept at RT; and part 3 was incubated 30 min at 95° C. and then kept at RT.
Stock FXIIa was diluted 700× in BSA5. The inhibitor was diluted in BSA5 as indicated. Wells contained 70 μl diluted FXIIa (5 nM final), 70 μl inhibitor and 20 μl S2302 (475 or 462.5 μM final). The reaction was started after 5 min heating on the heating plate with S2302. Filters 405 nm and 490 nm reference. Found mΔA/min was multiplied by 2.14 to get the figure for a 1 cm path.
The residual activity (V) was fitted against the PTI concentration with equation:
(§1) V=(E+(sqrt(Ê2+2*E*(Ki−I)+Î2+2*I*Ki+Kî2)−E−I−Ki)/2)*kcat*S/(Km+S)
(§2) in which E=[FXIIa], Ki is the dissociation constant, I=[Inhibitor], kcat and Km are Michaelis constants and S=[S2302].

Another data set relates to contact activation. The data set can be described thus: Thrombin generation (CAT) in platelet poor plasma contact activated with kaolin. To be noted: concentration that prolongs clotting time of kaolin contact activated plasma four times. The data set is classed as biochemical, human. The protocol: Thrombin generation was carried out according to WO2003/093831.
Following a double centrifugation at 2500×g for 15 min at room temperature, platelet poor plasma (PPP) was collected from the upper half volume of plasma supernatant, quick frozen and stored at −80° C. The absence of platelet and leucocyte in PPP was checked with an ADVIA 120 counter (Bayer Diagnostics, NY, USA).
Recombinant human tissue factor Innovin® was obtained from Dade Behring (Marburg, Germany) and used at a final concentration of 0.5 pM in PRP and 1 or 5 pM in PPP samples. The phospholipid vesicles used at a final concentration of […] were obtained from Avanti Polar Lipids (Alabaster, Ala., USA) and consisted of 20 mol % phosphatidylserine (PS), 20 mol % phosphatidylethanolamine (PE) and 60 mol % phosphatidylcholine (PC) and were prepared by extrusion method (9,10). Kaolin light (hydrated aluminium silicate) was obtained from Baker Harrison ltd, (Ilford, UK).
Hepes-buffered saline contained 20 mM Hepes (Sigma Aldrich, l'Ile d'Abeau Chesnes, France), 140 mM NaCl and 5 mg/mL bovine serum albumin (BSA) (Euromedex, Souffelweyersheim, France), pH 7.35. This buffer was stored at −20° C. until use. A fresh mixture of fluorogenic substrate and CaCl2 was prepared before each experiment. Fluorogenic substrate, Z-Gly-Gly-Arg-AMC, was obtained from Bachem (Bubendorf, Switzerland). The mixture of fluorogenic substrate 2.5 mM and CaCl2 0.1 M was prepared using buffer containing Hepes 20 mM and 60 mg/mL BSA, pH 7.35. The Calibrator with the activity of 600 nM human thrombin was obtained from Thrombinoscope BV (Maastricht, The Netherlands). Transparent, round bottom Greiner microtiter plates (Greiner ref 65204, Poitiers, France) were used.
Thrombin generation was measured using Calibrated Automated Thrombography (CAT) according to the methodology of WO2003/093831 and a 96-well plate fluorometer (Fluoroscan Ascent Reader, Thermolab systems OY, Helsinki, Finland) equipped with a 390/460 nm filter set. Briefly, 80 μL of plasma is dispensed into the wells of round-bottom 96 well-microtiter plates. 20 μL of a mixture containing tissue factor and phospholipids is added to the PPP sample; alternatively, in order to obtain contact activation, the citrated plasma is preincubated for at least 10 min with 1 mg/ml of Kaolin light. The starting reagent (20 μL per well) contains fluorogenic substrate and CaCl2. […] The most important parameters that can be derived from CAT are lag time, endogenous thrombin potential corresponding to the area under the CAT curve, peak height of thrombin and time to peak.

The target in data set [2] is T1, h-FXIIa. The data set is described as follows: Stability of CTI, PTI and TICA at RT and at 95° C., read as inhibition of h-FXIIa. It is filed as physicochemical. The protocol: Materials • S2302 From Chromogenic, lot # N0398718 SEQ0860, exp. date 2012-07. Water added on 7 Oct. […] On 3 Aug. […] Product code FXIIa 1212A, lot #FXIIa 2520PL. Bottle with 0.5 mg was reconstituted with 370 μl pure water. […] Buffer 4 mM NaAc, 150 mM NaCl (pH 5.3). Preparation was divided into 20 μl amounts and frozen at −80° C. • Hepes735 140 mM NaCl, 20 mM Hepes, 0.02% NaN3 (pH 7.35). • BSA5 Hepes735+5 mg/ml BSA. • CTI Prepared on 17 Dec. 2004, 0.141 mg/ml, i.e. 0.141/12028=11.7*10^−6 M (11.7 μM). One portion was thawed and divided into 3 parts. […]
Stock FXIIa was diluted 700× in BSA5. The inhibitor was diluted in BSA5 as indicated. Wells contained 70 μl diluted FXIIa (5 nM final), 70 μl inhibitor and 20 μl S2302 (475 or 462.5 μM final). The reaction was started after 5 min heating on the heating plate with S2302. Filters 405 nm and 490 nm reference. Found ΔmA/min was multiplied by 2.14 to get the figure for a 1 cm path.
The residual activity (V) was fitted against the inhibitor concentration with equation:
as §1, §2
To calculate the concentration of I the equation I=x·(x−E−Ki)/(x−E) was used. In this equation is I the calculated inhibitor concentration, x=the residual activity of FXIIa (free FXIIa), E the total FXIIa concentration (=9.33 nM), and Ki the dissociation or inhibitor constant.

Where [3] appears, read: ki F.XIIa (ng/ml), Before heating.

As for `CC[C@H](C)[C@@H]1NC(=O)[C@@H]2CSSC[C@H](NC(=O)[C@@H](NC(=O)[C@@H](N)CCCNC(=N)N)C(C)C)C(=O)N3CCC[C@H]3C(=O)N[C@@H](CCCCN)C(=O)N[C@@H]([C@@H](C)CC)C(=O)N[C@@H](CC(C)C)C(=O)N[C@@H](CCSC)C(=O)N[C@@H](CCC(=O)O)C(=O)N[C@H]3CSSC[C@H](NC1=O)C(=O)N[C@@H](CC(C)C)C(=O)N[C@@H](CCC(=O)O)C(=O)N[C@@H](Cc1c[nH]cn1)C(=O)NCC(=O)N[C@@H](Cc1ccc(O)cc1)C(=O)N[C@H](C(=O)NCC(=O)O)CSSC[C@H](NC(=O)[C@H](CC(=O)O)NC(=O)[C@H](CO)NC(=O)[C@H](CC(=O)O)NC(=O)[C@H](CCCCN)NC(=O)[C@H](CCCCN)NC3=O)C(=O)N[C@@H](CC(C)C)C(=O)N[C@@H](C)C(=O)N[C@@H](CCC(=O)O)C(=O)N2` [TICA4] (H-RVCPKILMECKKDSDCLAECICLEHGYCG-OH; disulfide 3-20, 10-22, 16-28 (inferred); N-terminus and C-terminus assumed), the Ki was 1420 nM at h-FXIIa [1] (ki F.XIIa (nM), Before heating) and 1420 nM at h-FXIIa [1] (setting [3]). The figures for the “4 × lag-time (ng/ml)” value in the data set on contact activation (After heating) and with contact activation (Before heating) were 102.9 ng/mL and 102.7 ng/mL, respectively. Besides, the entries for the “4 × lag-time (μM)” value in the data set with contact activation (After heating) and in the data set with contact activation (Before heating) were 31.4 µM and 31.6 µM, respectively. Also, the “Res. Act. (%)” value at h-FXIIa [2] (inhibitor 30 min 95° C.) was determined as 94%; on h-FXIIa [2] (inhibitor at RT during 72 hrs) it was 98%; at h-FXIIa [2] (inhibitor kept at −80° C.), 100%.

As to `CC[C@H](C)[C@@H]1NC(=O)[C@H](CCCNC(=N)N)NC(=O)[C@@H]2CCCN2C(=O)[C@@H](NC(=O)[C@@H](NC(=O)[C@@H](N)CCCNC(=N)N)C(C)C)CSSC[C@@H]2NC(=O)[C@H](CCC(=O)O)NC(=O)[C@H](C)NC(=O)[C@H](CC(C)C)NC(=O)[C@@H]3CSSC[C@@H](C(=O)NCC(=O)O)NC(=O)[C@H](Cc4ccc(O)cc4)NC(=O)CNC(=O)[C@H](Cc4c[nH]cn4)NC(=O)[C@H](CCC(=O)O)NC(=O)[C@H](CC(C)C)NC(=O)[C@H](CSSC[C@H](NC(=O)[C@H](CCC(=O)O)NC(=O)[C@H](CCSC)NC(=O)[C@H](CC(C)C)NC1=O)C(=O)N[C@@H](CCCCN)C(=O)N[C@@H](CCCCN)C(=O)N[C@@H](CC(=O)O)C(=O)N[C@@H](CO)C(=O)N[C@@H](CC(=O)O)C(=O)N3)NC(=O)[C@H](C(C)C)NC2=O` [TICA2] (H-RVCPRILMECKKDSDCLAECVCLEHGYCG-OH; disulfide 3-20, 10-22, 16-28 (inferred); N-terminus and C-terminus assumed), the Ki at h-FXIIa [1] (Ki, Table 2, inhibitory activity of different polypeptides) is 109 nM; on h-FXIIa [1] (setting [3]), 109 nM. The “4 × lag-time (ng/ml)” value amounted to 31.9 ng/mL in the data set with contact activation (After heating) and 31.1 ng/mL with contact activation (Before heating). Moreover, the “4 × lag-time (μM)” value in the data set with contact activation (After heating) was 9.8 µM; in the data set on contact activation (Before heating), 9.6 µM. Further, the “Res. Act. (%)” value at h-FXIIa [2] (inhibitor 30 min 95° C.) was 99%; on h-FXIIa [2] (inhibitor at RT during 72 hrs), 105%; at h-FXIIa [2] (inhibitor kept at −80° C.) it was 100%.
